Data from patent US8344010B2, “Fused imidazole derivatives as TRPV3 antagonist” (Glenmark Pharmaceuticals S.A., priority 2008, dated 2013).

Molecular target: T1, Human TRPV3 (Homo sapiens, UniProt Q8NET8)
T1 construct: expressed in transfected cells; host or cells: CHO cells (selected with G-418)
T1 sequence (Q8NET8 1-790): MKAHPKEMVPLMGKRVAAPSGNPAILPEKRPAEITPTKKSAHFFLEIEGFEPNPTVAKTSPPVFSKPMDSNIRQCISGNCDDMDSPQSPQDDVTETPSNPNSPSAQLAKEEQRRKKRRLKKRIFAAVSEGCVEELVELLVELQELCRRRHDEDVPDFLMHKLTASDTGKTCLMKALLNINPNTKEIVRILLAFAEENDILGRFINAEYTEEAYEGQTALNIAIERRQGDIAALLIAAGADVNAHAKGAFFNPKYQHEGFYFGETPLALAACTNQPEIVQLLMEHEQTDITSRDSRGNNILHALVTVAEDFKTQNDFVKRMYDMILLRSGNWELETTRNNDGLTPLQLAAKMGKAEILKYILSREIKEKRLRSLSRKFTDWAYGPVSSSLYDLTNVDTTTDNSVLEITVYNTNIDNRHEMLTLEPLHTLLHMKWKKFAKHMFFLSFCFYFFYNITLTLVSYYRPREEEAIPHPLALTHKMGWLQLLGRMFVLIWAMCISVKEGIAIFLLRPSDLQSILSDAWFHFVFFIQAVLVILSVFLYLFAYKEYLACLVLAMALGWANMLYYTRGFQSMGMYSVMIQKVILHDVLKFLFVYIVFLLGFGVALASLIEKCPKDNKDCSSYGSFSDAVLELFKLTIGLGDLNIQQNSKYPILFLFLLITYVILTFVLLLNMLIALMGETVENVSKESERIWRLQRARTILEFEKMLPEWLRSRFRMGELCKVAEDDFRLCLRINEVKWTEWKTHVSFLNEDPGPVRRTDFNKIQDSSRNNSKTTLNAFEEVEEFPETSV
Test: 45Calcium uptake assay: inhibition of 2-APB induced cellular uptake of radioactive calcium
Type: cell-based
Details: human TRPV3 expressing CHO cells, 2-APB 500 μM; for inhibition at 1 µM: 1 μM test compound, read-out: Percentage Inhibition (1 μM); for inhibition at 10 µM: 10 μM test compound, read-out: Percentage Inhibition (10 μM); for IC50: class symbol
Source text: The illustrative examples of the present invention are screened for TRPV3 activity according to a modified procedure described in Tóth, A., Kedei, N., Wang, Y. and Blumberg, P. M. Life Sciences (2003), 73, 487-498. The screening of the compounds can be carried out by other methods and procedures known to a person skilled in the art. Such screening methods may be found in (a) Hu, H.-Z. et al. J. Biol. Chem. (2004), 279, 35741-35747; (b) Smith, G. D. et al. Nature (2002), 418, 186-190; (c) Peier, A. M. et al. Science (2002), 296, 2046-2049.
Screening for TRPV3 antagonist using the ^45Calcium uptake assay The inhibition of TRPV3 receptor activation was followed as inhibition of 2-aminoethoxydiphenylborate (2-APB) induced cellular uptake of radioactive calcium. Test compounds were dissolved in dimethyl sulfoxide (DMSO) to prepare 20 mM stock solution and then diluted using plain medium with DMEM/F-12 containing 1.8 mM CaCl2 to get desired concentration. Final concentration of DMSO in the reaction was 0.5% (v/v). Human TRPV3 expressing CHO cells were grown in DMEM/F-12 medium with 10% FBS, 1% penicillin-streptomycin solution, 400 μg/ml of G-418. Cells were seeded 24 h prior to the assay in 96 well plates so as to get ˜50,000 cells per well on the day of experiment. Cells were treated with test compounds for 10 minutes followed by addition of 2-APB at a final concentration of 500 μM and 5 μCi/ml^45Ca^+2 for 4 minutes. Cells were washed and lysed using buffer containing 1% Triton X-100, 0.1% deoxycholate and 0.1% SDS. Radioactivity in the lysate was measured in Packardt Top count after addition of liquid scintillant. Concentration response curves were plotted as a % of maximal response obtained in the absence of test antagonist. IC50 value was calculated from concentration response curve by nonlinear regression analysis using GraphPad PRISM software.
Percentage inhibition at concentrations of 1.0 μM and 10.0 μM are given in the table along with IC50 details for selected examples.

inhibition at 1 µM [%] | inhibition at 10 µM [%] | IC50 [nM] | SMILES
97.1 | 98.1 | 50 to 100 | CCCCCOc1c(/C=C/c2nc3cccnc3n2-c2ccc(C#N)cn2)cccc1OC(F)F [Example 96, 6-(2-{(E)-2-[3-(Difluoromethoxy)-2-pentyloxyphenyl]vinyl}-3H-imidazo[4,5-b]pyridin-3-yl)nicotinonitrile]
25.1 | 71.1 |  | CCCCCOc1c(/C=C/c2nc3ccc[n+]([O-])c3n2-c2ccc(C#N)cn2)cccc1OC [Example 88, 6(2-{(E)-2-[3-methoxy-2-(pentyloxy)phenyl]ethenyl}-4-oxido-3H-imidazo[4,5-b]pyridin-3-yl)pyridine-3-carbonitrile]
95.9 | 97.6 | 100 to 500 | COc1cccc(/C=C/c2nc3cc(Cl)ccc3n2-c2ccc(C#N)cn2)c1OC1CCCC1 [Example 55, 6-{5-chloro-2-[(E)-2-(2-cyclopentyloxy-3-methoxyphenyl)vinyl]-1H-benzimidazol-1-yl}nicotinonitrile]
98.3 | 97.8 | 50 to 100 | N#Cc1ccc(-n2c(/C=C/c3cccc(OC(F)F)c3OC3CCCC3)nc3cc(Cl)cnc32)nc1 [Example 103, 6-(6-Chloro-2-{(E)-2-[2-(cyclopentyloxy)-3-difluoromethoxyphenyl]vinyl}-3H-imidazo[4,5-b]pyridin-3-yl)nicotinonitrile]
93.2 | 98.7 | 50 to 100 | CCC(CC)Oc1c(/C=C/c2nc3cc(F)c(F)cc3n2-c2ccc(C#N)cn2)cccc1OC [Example 77, 6-{2-[(E)-2-(2-(1-ethylpropoxy)-3-methoxyphenyl)vinyl]-5,6-difluoro-1H-benzimidazol-1-yl}nicotinonitrile]
11.7 | 12.3 |  | COc1cccc(/C=C/c2nc3ccccc3n2Cc2ccc(C(C)(C)C)cc2)c1OC1CCCC1 [Example 40, 2-[(E)-2-(2-Cyclopentyloxy-3-methoxyphenyl)vinyl]-1-(4-tert-butylbenzyl)-1H-benzimidazole]
76.8 | 94.2 | 100 to 500 | COc1cccc(/C=C/c2nc3ccccc3n2-c2ccc(C#N)cc2F)c1OCC1CC1 [Example 39, 4-{2-[(E)-2-(2-Cyclopropylmethoxy-3-methoxyphenyl)vinyl]-1H-benzimidazol-1-yl}-3-fluorobenzonitrile]
97.7 | 98.4 | 50 to 100 | COc1cccc(/C=C/c2nc3ccc(Cl)cc3n2-c2ccc(C#N)cn2)c1OCC(C)C [Example 52, 6-(6-Chloro-2-{(E)-2-[3-methoxy-2-(2-methylpropoxy)phenyl]ethenyl}-1H-benzimidazol-1-yl)pyridine-3-carbonitrile]
43.5 | 75.8 |  | COc1cccc(/C=C/c2nc3ccccc3n2-c2ncc(C#N)s2)c1OC1CCCC1 [Example 48, 2-{2-[(E)-2-(2-[Cyclopentyloxy]-3-methoxyphenyl)vinyl]-1H-benzimidazol-1-yl}-1,3-thiazole-5-carbonitrile]
93.3 | 98.2 | 50 to 100 | COc1cccc(/C=C/c2nc3cccnc3n2-c2ccc(C#N)cn2)c1OCC1CCC1 [Example 90, 6-[2-{(E)-2-[2-(Cyclobutylmethoxy)-3-methoxyphenyl]vinyl}-3H-imidazo[4,5-b]pyridine-3-yl]nicotinonitrile]
3.02 | 24.5 |  | COc1cccc(/C=C/c2nc3ccc[n+]([O-])c3n2-c2ccc(C#N)cn2)c1OC1CCCC1 [Example 92, 6 (2-{(E)-2-[2-(cyclopentyloxy)-3-methoxyphenyl]ethenyl}-4-oxido-3H-imidazo[4,5-b]pyridin-3-yl)pyridine-3-carbonitrile]
97 | 98.9 | 50 to 100 | CCCCCOc1c(/C=C/c2nc3cc(F)c(F)cc3n2-c2ccc(C#N)cn2)cccc1OC(F)F [Example 82, 6-(2-{(E)-2-[3-(Difluoromethoxy)-2-pentyloxyphenyl]vinyl}-5,6-difluoro-1H-benzimidazol-1-yl)nicotinonitrile]
77.1 | 92.6 | 100 to 500 | COc1cccc(/C=C/c2nc3ccccc3n2-c2ccc(C(F)(F)F)cn2)c1OCc1ccccc1 [Example 28, 2-[(E)-2-(2-Benzyloxy-3-methoxyphenyl)vinyl]-1-[5-(trifluoromethyl)pyridin-2-yl]-1H-benzimidazole]
96.8 | 98.9 | 100 to 500 | COc1ccc2c(c1)nc(/C=C/c1cccc(OC)c1OC1CCCC1)n2-c1ccc(C#N)cn1 [Example 56, 6-{2-[(E)-2-(2-[Cyclopentyloxy]-3-methoxyphenyl)vinyl]-5-methoxy-1H-benzimidazol-1-yl}nicotinonitrile]
96 | 98.7 | 100 to 500 | COc1cccc(/C=C/c2nc3ccc(F)cc3n2-c2ccc(C#N)cn2)c1OC1CCCC1 [Example 53, 6-{2-[(E)-2-(2-Cyclopentyloxy-3-methoxyphenyl)vinyl]-6-fluoro-1H-benzimidazol-1-yl}nicotinonitrile]
95.2 | 97.6 | 50 to 100 | CCCCCOc1c(/C=C/c2nc3cc(Cl)cnc3n2-c2ccc(C#N)cn2)cccc1OC [Example 93, 6-{6-Chloro-2-[(E)-2-(2-pentyloxy-3-methoxyphenyl)vinyl]-3H-imidazo[4,5-b]pyridin-3-yl}nicotinonitrile]
96.2 | 97.8 | 50 to 100 | COc1ccc2nc(/C=C/c3cccc(OC)c3OC3CCCC3)n(-c3ccc(C#N)cn3)c2c1 [Example 51, 6-{2-[(E)-2-(2-Cyclopentyloxy-3-methoxyphenyl)vinyl]-6-methoxy-1H-benzimidazol-1-yl}nicotinonitrile]
48.7 | 98.3 |  | COc1cccc(/C=C/c2nc3cnccc3n2-c2ccc(C#N)cn2)c1OC1CCCC1 [Example 104, 6-{2-[(E)-2-(2-[Cyclopentyloxy]-3-methoxyphenyl)vinyl]-1H-imidazo[4,5-c]pyridin-1-yl}nicotinonitrile]
3.64 | 85 |  | COc1cccc(/C=C/c2nc3ccccc3n2-c2ccccn2)c1OC1CCCC1 [Example 2, 2-[(E)-2-(2-Cyclopentyloxy-3-methoxyphenyl)vinyl]-1-pyridin-2-yl-1H-benzimidazole]
89.5 | 95.8 | > 500 | FC(F)Oc1cccc(/C=C/c2nc3cccnc3n2-c2ccc(C(F)(F)F)cc2)c1OCC1CCC1 [Example 99, 2-[(E)-2-(2-Cyclobutylmethoxy-3-difluoromethoxyphenyl)vinyl]-3-[4-(trifluoromethyl)phenyl]-3H-imidazo[4,5-b]pyridine]
16.1 | 81.1 |  | COc1cccc(/C=C/c2nc3ccccc3n2-c2nccs2)c1OCC1CC1 [Example 46]

SMILES | inhibition at 1 µM [%] | inhibition at 10 µM [%] | IC50 [nM]
CCCCOc1c(/C=C/c2nc3ccccc3n2-c2ccc(C#N)cn2)cccc1OC [Example 8, 6-{2-[(E)-2-(2-Butoxy-3-methoxyphenyl)vinyl]-1H-benzimidazol-1-yl}nicotinonitrile] | 91.6 | 97 | 100 to 500
